Consider eleven molecules from US20040152766A1, “Composition comprising demethylcantharidin in combination with platinum-containing anticancer agents and use thereof” (priority 2003, published 2004).

Values joined by “and” are separate entries in the source; they are usually repeats but may differ in a detail not shown here. Equal values may be shown once. Read-outs that look alike come from different tables or passages of the source.

Assay [1] has as its system NCI: H460 human lung cancer. Description: In vitro antitumor-drug screening, MTT assay, NCI:H460. The class given is cell-based. To be noted: n = 12-16 from 3-4 independent experiments, read-out: Growth-inhibitory activity IC50 ± sd. On the procedure:
(§1) Test complexes 1-5, DMC, hydrolyzed DMC, cantharidin, together with controls cisplatin and carboplatin, were screened for in vitro antitumor activity against a series of human cancer cell lines and mouse leukaemia L1210, using a tetrazolium microculture assay.
(§2) Drugs: Drugs to be tested were dissolved in complete medium at twice the highest concentration to be used, followed by filter (0.22 μm) sterilization. A series of log dilutions were made of each drug solution using complete medium. All drug solutions were prepared within 10 minutes before adding to the cells.
(§3) Cells: MDA-MB-231 (human breast), SK-OV-3 (human ovarian), SK-Hep-1 (human liver), COLO320DM (human colon), L1210 (mouse leukaemia), NCI:H460 (human lung) and NTERA-Scl-D1 (human testicular) were obtained from the American Type Culture Collection (ATCC).
(§4) The cultures were incubated for an additional 72 hours.
(§5) Data analysis: The mean OD for all 12 control wells was determined. For each concentration of each drug, the mean OD of the 4 wells was determined. All mean OD was subtracted from the blank to account for the background. The “Percent of Control” values were determined and plotted. The concentration of drug resulting in 50% growth inhibition (IC50) was determined using the software Prism 3.0 by fitting the graph into sigmoidal dose-response curve.

For another assay, the system named is L1210 mouse leukaemia. Briefly: In vitro antitumor-drug screening, tetrazolium (MTT) microculture assay, L1210. The class given is cell-based. On the procedure: as §1, §2, §3, §4, §5
Assay [2] relates to SK-OV-3 human ovarian cancer. Description: In vitro antitumor-drug screening, MTT assay, SK-OV-3. The class given is cell-based. As for the experimental part:
as §1, §2, §3, §4, §5
(Tetrazolium dyes change colour on reduction, which living cells bring about.)

Assay [3] concerns SK-Hep-1 human liver cancer. Briefly: In vitro antitumor-drug screening, MTT assay, SK-Hep-1. It counts as cell-based. As for the experimental part:
as §1, §2, §3, §4, §5

Assay [4] has as its system COLO320DM human colon cancer. Briefly: In vitro antitumor-drug screening, MTT assay, COLO320DM. It counts as cell-based. On the procedure:
as §1, §2, §3, §4, §5

Assay [5] relates to NTERA-S cl D1 human testicular cancer. Description: In vitro antitumor-drug screening, MTT assay, NTERA-S cl D1. The class given is cell-based. To be noted: n = 12-16 from 3-4 independent experiments, read-out: Growth-inhibitory activity IC50 ± sd. On the procedure:
as §1, §2, §3, §4, §5

Assay [6] concerns MDA-MB-231 human breast cancer. Briefly: In vitro antitumor-drug screening, MTT assay, MDA-MB-231. It counts as cell-based. On the procedure: as §1, §2, §3, §4, §5
The subject of assay [7] is Cisplatin-resistant L1210 mouse leukaemia. To be noted: for fold-resistant (cross-resistance): Dm in CDDP-resistant L1210 versus sensitive L1210.
Method: (§6) In vitro drug exposure: Trypsinized cells were adjusted to a concentration of 2×10^5 cells/ml in complete medium and for each drug to be tested, 0.1 ml of the cell suspension was added to each of the 24 wells of a 96-well microtitre plate. The plate was then incubated at standard conditions for 24 hours in order to allow the cells to attach to the bottom of the well and resume exponential growth. To each well of the control cultures and drug/concentration combination, 0.1 ml of complete medium and drug solution respectively was added. Each drug/concentration combination consisted of 4 replicates while control cultures consisted of 12 replicates. 12 replicates of blank consisting of 0.2 ml complete medium were set aside to account for the background. The cultures were incubated for an additional 72 hours. All experiments were repeated at least 3 times on different occasions.
(§7) MTT assay: The MTT (tetrazolium) assay was used to determine the growth-inhibitory effects of different drugs. A 5 mg/ml solution of MTT (3-(4,5-dimethylthiazol-2-yl)-2,5-diphenyltetrazolium bromide) was prepared in phosphate buffer saline (pH 7.4), filter (0.22 μm) sterilized and stored at −20° C. To each well, 0.02 ml of the MTT solution was added and the plates were incubated at standard conditions for 4 hours. The media from each well was then removed and 0.1 ml of DMSO (dimethylsulfoxide) was added to each well to solubilize the colored dye produced from the metabolic reduction of MTT. The amount of reduced MTT was determined by spectrophotometric means (570 nm).
(§8) Platinum compounds were evaluated alone and in combination with demethylcantharidin (DMC) for their cytotoxic effects. The cytotoxicity for the compounds was determined by the MTT assay as described above. The median-effect principle and combination-index isobologram method of Chou and Talalay was used to determine the dose-effect parameters for cisplatin, DMC, or their mixtures at different combination ratios. Each drug or mixture was 3-fold serially diluted to generate a dose-effect relationship in the cytotoxic assays.
(§9) Combinations of cisplatin and DMC were evaluated for synergism, additive effect or antagonism using the median-effect plot and combination-index isobologram method of Chou and Talalay references 1-4.
This method involves plotting dose-effect curves for each agent and their combinations in multiply-diluted concentrations by using the median-effect equation [3,6]
where fa is the fraction of cells affected (ie, fraction of cells killed), fu the fraction unaffected (i.e. fraction of cells surviving; fa=1−fu), D the dose of drug and Dm the dose causing the median effect
The parameters m, Dm, and r are the slope, antilog of x-intercept, and the linear correlation coefficient of the median-effect plot, which signifies the shape of the dose-effect curve, the potency (IC50), and conformity of the data to the mass-action law, in references 3, 5 and 6, respectively. Dm and m values are used for calculating the combination index (CI) values.
CI<1, CI=1, and CI>1 indicate synergism, additivity, and antagonism, respectively. As based on the classic isobologram equation, CI can be calculated by equation:
CI=[(D)1/(Dx)1]+[(D)2/(Dx)2]+[α(D)1(D)2]/[(Dx)1(Dx)2),
Both the mutually non-exclusive and exclusive drug interaction as defined by Chou and Chou (reference 7) were evaluated.
To preclude a false-positive result, classical isobologram curve tracing was used to confirm the synergistic effect at a reasonable fractional cytotoxic effect (fa=50%).
The test system of assay [8] is Sensitive parental L1210 mouse leukaemia. Description: cells. The class given is cell-based. To be noted: 72-hr exposure, fa = 50%.
Method: as §6, §7, §8, §9
This method involves plotting dose-effect curves for each agent and their combinations in multiply-diluted concentrations by using the median-effect equation [3,6] […]
CI<1, CI=1, and CI>1 indicate synergism, additivity, and antagonism, respectively. As based on the classic isobologram equation, CI can be calculated by equation: […]
Both the mutually non-exclusive and exclusive drug interaction as defined by Chou and Chou (reference 7) were evaluated. […]
The mark [9] stands for this setting: L1210 mouse leukaemia, n = 12-16 from 3-4 independent experiments, read-out: Growth-inhibitory activity IC50 ± sd.
Where [10] appears, read: SK-OV-3 human ovarian cancer, n = 12-16 from 3-4 independent experiments, read-out: Growth-inhibitory activity IC50 ± sd.
[11] abbreviates: SK-Hep-1 human liver cancer, n = 12-16 from 3-4 independent experiments, read-out: Growth-inhibitory activity IC50 ± sd.
Setting [12] is: COLO320-DM human colon cancer, n = 12-16 from 3-4 independent experiments, read-out: Growth-inhibitory activity IC50 ± sd.
Where [13] appears, read: MDA-MB-231 human breast cancer, n = 12-16 from 3-4 independent experiments, read-out: Growth-inhibitory activity IC50 ± sd.
Where [14] appears, read: Mus musculus, L1210, Table 1, read-out: In vitro antitumor activity IC50.
[15] abbreviates: Homo sapiens, SK-OV-3, Table 1, read-out: In vitro antitumor activity IC50.
Setting [16] is: Homo sapiens, SK-HEP1, SK-Hep-1, Table 1, read-out: In vitro antitumor activity IC50.
Where [17] appears, read: Homo sapiens, COLO 320DM, COLO320DM, Table 1, read-out: In vitro antitumor activity IC50.
The mark [18] stands for this setting: Homo sapiens, MDA-MB-231, Table 1, read-out: In vitro antitumor activity IC50.
Setting [19] is: sensitive parental L1210, read-out: Dm (i.e. IC50), antilog of x-intercept of the median-effect plot.

In the case of `C[NH][Pt]1([NH]C)[O]C(=O)C2C3CCC(O3)C2C(=O)[O]1` (stereo not drawn) [Complex 3], the IC50 in assay [1] turned out to be 3.44 ± 1.98 µM; in the assay on L1210 mouse leukaemia (setting [9]), 6.19 ± 2.67 µM; in assay [2] (setting [10]), 37.2 ± 13.4 µM; in assay [3] (setting [11]) it was 15.4 ± 6.04 µM; in [4] (setting [12]), 48.9 ± 10.5 µM; in assay [5], 0.84 ± 0.2 µM. The 50% inhibitory concentration (IC50) in assay [6] (setting [13]) came out at 49.4 ± 9.42 µM.

In the case of `O=C1[O][Pt]2([NH]C3CCCCC3[NH]2)[O]C(=O)C2C3CCC(O3)C12` (stereo not drawn) [Complex 5], the “fold-resistant (cross-resistance)” value in [7] is given as “negligible cross-resistance”.

As for `C[C@@]12C(=O)OC(=O)[C@]1(C)[C@H]1CC[C@@H]2O1` [Cantharidin], the IC50 was 38.9 µM in the assay on L1210 mouse leukaemia (setting [14]); 4.98 µM in assay [2] (setting [15]); 3.34 µM in assay [3] (setting [16]); 35.6 µM in assay [4] (setting [17]); 10.6 µM in [6] (setting [18]).

For `N.N.O=C([O-])C1(C(=O)[O-])CCC1.[Pt+2]` [Carboplatin, reference compound], the IC50 in assay [1] turned out to be 60.3 ± 16.4 µM; in the assay with L1210 mouse leukaemia (setting [9]), 10.1 ± 3.71 µM; in [2] (setting [10]), 149 ± 34.1 µM; in [3] (setting [11]), 501 ± 86.6 µM; in [4] (setting [12]) it was 188 ± 35.8 µM; in assay [5], 2.75 ± 1.13 µM. For the same molecule, the IC50 turned out to be 154 µM in assay [7], 10.6 µM in [8] (setting [19]) and 1080 ± 157 µM in assay [6] (setting [13]). The “fold-resistant (cross-resistance)” value in [7] was 14.5 fold; in [7] (listed as carboplatin) it was about 15 fold.

As for `[NH2][Pt]1([NH2])[O]C(=O)C2C3CCC(O3)C2C(=O)[O]1` (stereo not drawn) [Complex 1], the 50% inhibitory concentration (IC50) was found to be 21.1 ± 10.7 µM in assay [1]; 2.71 ± 0.4 µM in the assay on L1210 mouse leukaemia (setting [9]); 40.8 ± 14.3 µM in assay [2] (setting [10]); 20.6 ± 5.89 µM in [3] (setting [11]); 37.2 ± 7.14 µM in [4] (setting [12]); 0.36 ± 0.25 µM in assay [5]. Moreover, the figures for the concentration for half-maximal inhibition (IC50) in assay [7], in assay [8] (setting [19]) and in assay [6] (setting [13]) were 42.4 µM, 5.15 µM and 63.8 ± 8.28 µM, respectively. Further, the “fold-resistant (cross-resistance)” value is 8 fold and 8.2 fold in assay [7]; “different degree of cross-resistant” in assay [7] (listed as complex 1).

For `N.N.[Cl][Pt][Cl]` [Cisplatin, reference compound], the IC50 in [1] was found to be 11.3 ± 4.93 µM; in the assay with L1210 mouse leukaemia (setting [9]), 0.51 ± 0.11 µM; in assay [2] (setting [10]) it was 15.2 ± 11.8 µM; in assay [3] (setting [11]), 54.1 ± 9.81 µM; in [4] (setting [12]), 11.9 ± 1.5 µM; in assay [5], 0.19 ± 0.1 µM. Also, the results for the concentration for half-maximal inhibition (IC50) in assay [7], in [8] (setting [19]) and in [6] (setting [13]) were 24.6 µM, 0.603 µM and 65.7 ± 4.39 µM, respectively. Besides, in [7] (Cisplatin:DMC 1:1.67 (resistant) versus 1:1.49 (sensitive)), the “DRI for cisplatin, resistant versus sensitive parental cell line” value was “about 5.5 fold”. The “fold-resistant (cross-resistance)” value is given as 40.8 fold in assay [7] and 40 fold in assay [7] (listed as cisplatin).

In the case of `O=C(O)C1C2CCC(O2)C1C(=O)O` (stereo not drawn) [Hydrolyzed DMC], the IC50 with L1210 mouse leukaemia (L1210, Table 1, read-out: In vitro antitumor activity IC50) was determined as 8.33 µM; in assay [2] (SK-OV-3, Table 1, read-out: In vitro antitumor activity IC50) it was 46.6 µM; in assay [3] (SK-Hep-1, Table 1, read-out: In vitro antitumor activity IC50), 7.2 µM; in assay [4] (COLO320DM, Table 1, read-out: In vitro antitumor activity IC50), 46.5 µM; in assay [6] (MDA-MB-231, Table 1, read-out: In vitro antitumor activity IC50) it was 41.7 µM.

For the molecule `O=C1[O][Pt]2([NH][C@@H]3CCCC[C@H]3[NH]2)[O]C1=O` [Oxaliplatin], in assay [7], the “fold-resistant (cross-resistance)” value is recorded as “different degree of cross-resistant”.

As to `O=C1OC(=O)C2C3CCC(O3)C12` (stereo not drawn) [DMC, Demethylcantharidin], the IC50 in the assay on L1210 mouse leukaemia (setting [14]) is 13.9 µM; in assay [2] (setting [15]), 53.8 µM; in assay [3] (setting [16]), 11.5 µM; in assay [4] (setting [17]), 19.3 µM; in assay [8] (Mus musculus, L1210, 72 h, read-out: Dm (i.e. IC50), antilog of x-intercept of the median-effect plot, sensitive parental L1210), 11.2 µM; in [6] (setting [18]), 31.8 µM. Also, the entries for the “fold-resistant (cross-resistance)” value in [7] and in assay [7] (listed as demethylcantharidin (DMC)) were 1.1 fold and “negligible cross-resistance”, respectively.

Consider `CC[NH][Pt]1([NH]CC)[O]C(=O)C2C3CCC(O3)C2C(=O)[O]1` (stereo not drawn) [Complex 4], for which the IC50 is 3.91 ± 2.65 µM in assay [1]; 5.92 ± 1.94 µM in the assay on L1210 mouse leukaemia (setting [9]); 62.6 ± 33.5 µM in assay [2] (setting [10]); 20 ± 5.52 µM in [3] (setting [11]); 48.5 ± 9.95 µM in assay [4] (setting [12]); 0.6 ± 0.24 µM in assay [5]. Further, in assay [6] (setting [13]), the IC50 was 62.5 ± 13.3 µM.

For `CC(C)[NH][Pt]1([NH]C(C)C)[O]C(=O)C2C3CCC(O3)C2C(=O)[O]1` (stereo not drawn) [Complex 2], the 50% inhibitory concentration (IC50) in assay [1] turned out to be 26.5 ± 8.09 µM; in the assay with L1210 mouse leukaemia (setting [9]) it was 12.1 ± 2.35 µM; in assay [2] (setting [10]), 77.7 ± 19.8 µM; in [3] (setting [11]) it was 17.2 ± 8.07 µM; in assay [4] (setting [12]), 84.7 ± 9.68 µM; in assay [5], 1.44 ± 0.41 µM. The half-inhibitory concentration (IC50) in assay [6] (setting [13]) amounted to 94.5 ± 9.61 µM.

In general, IC50 refers to the concentration that inhibits the measured activity by half.
